In patent US12662491B2 (Redona Therapeutics, Inc., priority 2020, dated 2026):

Target: T1, Zcchc11 enzyme (Homo sapiens, UniProt Q5TAX3)
T1 construct: made in house; host or cells: HEK293 cells (Zcchc11); E. coli Rosetta II (LIN28A)
T1 sequence (Q5TAX3 212-1420): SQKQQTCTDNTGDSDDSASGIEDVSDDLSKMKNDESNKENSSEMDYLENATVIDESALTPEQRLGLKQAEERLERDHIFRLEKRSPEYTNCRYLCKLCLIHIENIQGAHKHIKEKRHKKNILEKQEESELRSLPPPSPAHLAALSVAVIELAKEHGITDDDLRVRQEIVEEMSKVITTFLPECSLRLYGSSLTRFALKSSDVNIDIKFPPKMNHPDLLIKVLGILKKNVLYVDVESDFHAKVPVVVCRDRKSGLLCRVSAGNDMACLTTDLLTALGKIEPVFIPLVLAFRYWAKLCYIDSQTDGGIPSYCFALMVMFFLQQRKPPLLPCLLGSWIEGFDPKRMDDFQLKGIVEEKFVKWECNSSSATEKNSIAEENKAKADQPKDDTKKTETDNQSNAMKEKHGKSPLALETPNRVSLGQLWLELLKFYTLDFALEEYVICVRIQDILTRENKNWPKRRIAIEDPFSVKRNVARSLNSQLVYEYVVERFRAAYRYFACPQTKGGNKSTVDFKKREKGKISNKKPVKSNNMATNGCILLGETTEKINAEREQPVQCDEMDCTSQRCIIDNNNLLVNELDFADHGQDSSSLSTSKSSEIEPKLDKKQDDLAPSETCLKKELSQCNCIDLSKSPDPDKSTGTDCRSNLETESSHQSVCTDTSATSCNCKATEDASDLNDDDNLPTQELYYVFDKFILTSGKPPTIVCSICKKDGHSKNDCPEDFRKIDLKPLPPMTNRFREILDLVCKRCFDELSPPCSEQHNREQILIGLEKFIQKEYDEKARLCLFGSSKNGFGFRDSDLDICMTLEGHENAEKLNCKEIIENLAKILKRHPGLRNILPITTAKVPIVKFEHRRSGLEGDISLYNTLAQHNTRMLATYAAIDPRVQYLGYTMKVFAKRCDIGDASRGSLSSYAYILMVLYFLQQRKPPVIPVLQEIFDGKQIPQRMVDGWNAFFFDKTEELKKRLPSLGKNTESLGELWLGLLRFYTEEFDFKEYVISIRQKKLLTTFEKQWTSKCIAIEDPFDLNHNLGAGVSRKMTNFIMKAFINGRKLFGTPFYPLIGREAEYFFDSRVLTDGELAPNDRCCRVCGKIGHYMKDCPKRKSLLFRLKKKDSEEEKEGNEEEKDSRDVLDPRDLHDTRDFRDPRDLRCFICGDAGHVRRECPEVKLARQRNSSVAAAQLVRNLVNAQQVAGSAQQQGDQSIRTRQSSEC
Assay: TUTase assay (Zcchc11 assay, Lin28a-dependent polyuridylation of pre-let-7)
Format: biochemical
Conditions: Lin28a-dependent Zcchc11 (Z11) TUTase activity; read-out: Potency Lin28a-dep Z11 IC50
Outline: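 LIN28A (10 nM) in pH 7.3 HEPES/KCl/MgCl2/DTT buffer was mixed with serially diluted compound, then 0.2 nM truncated human Zcchc11 and 2 nM labeled pre-let-7 were added for 30 min at room temperature. UTP (5 uM) and quench probe (4 nM) then started the reaction. Linear early rates gave IC50 values.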

`O=C(O)c1cn(-c2cc(F)cc(F)c2)c2cc(N3CCC[C@@H]3COc3ccccn3)c(F)cc2c1=O` [Compound 144, (R)-1-(3,5-difluorophenyl)-6-fluoro-4-oxo-7-(2-((pyridin-2-yloxy)methyl)pyrrolidin-1-yl)-1,4-dihydro-quinoline-3-carboxylic acid] and `O=C(O)c1cn(-c2ccc(F)c(F)c2)c2cc(N3CCC[C@@H]3COc3ccccn3)c(F)cc2c1=O` [Compound 149, (R)-1-(3,4-difluorophenyl)-6-fluoro-4-oxo-7-(2-((pyridin-2-yloxy)methyl)pyrrolidin-1-yl)-1,4-dihydro-quinoline-3-carboxylic acid] fall in the same range of IC50: 1000 to 10000 nM for the first, 1000 to 10000 nM for the second.

`O=C(O)c1cn(-c2ccc(Cl)cc2)c2cc(N3CCC[C@@H]3COc3ccccn3)c(F)cc2c1=O` [Compound 145, (R)-1-(4-chlorophenyl)-6-fluoro-4-oxo-7-(2-((pyridin-2-yloxy)methyl)pyrrolidin-1-yl)-1,4-dihydro-quinoline-3-carboxylic acid] and `O=C(O)c1cn(-c2ccc(F)cc2)c2cc(N3CCC[C@@H]3COc3ccccn3)c(F)cc2c1=O` [Compound 151, (R)-6-fluoro-1-(4-fluorophenyl)-4-oxo-7-(2-((pyridin-2-yloxy)methyl)pyrrolidin-1-yl)-1,4-dihydro-quinoline-3-carboxylic acid] cannot be ordered by IC50: at most 1000 nM for the first, at most 1000 nM for the second.

`COc1cccc(-n2cc(C(=O)O)c(=O)c3cc(F)c(N4CCC[C@@H]4COc4ccccn4)cc32)c1` [Compound 146, (R)-6-fluoro-1-(3-methoxy-phenyl)-4-oxo-7-(2-((pyridin-2-yloxy)methyl)pyrrolidin-1-yl)-1,4-dihydro-quinoline-3-carboxylic acid] and `Cc1cccc(-n2cc(C(=O)O)c(=O)c3cc(F)c(N4CCC[C@@H]4COc4ccccn4)cc32)c1` [Compound 155, (R)-6-fluoro-4-oxo-7-(2-((pyridin-2-yloxy)methyl)pyrrolidin-1-yl)-1-(m-tolyl)-1,4-dihydro-quinoline-3-carboxylic acid] cannot be ordered by IC50: at most 1000 nM for the first, at most 1000 nM for the second.

`COc1ccc(-n2cc(C(=O)O)c(=O)c3cc(F)c(N4CCC[C@@H]4COc4ccccn4)cc32)cc1` [Compound 147, (R)-6-fluoro-1-(4-methoxy-phenyl)-4-oxo-7-(2-((pyridin-2-yloxy)methyl)pyrrolidin-1-yl)-1,4-dihydro-quinoline-3-carboxylic acid] and `O=C(O)c1cn(-c2ccc(O)cc2)c2cc(N3CCC[C@@H]3COc3ccccn3)c(F)cc2c1=O` [Compound 166, (R)-6-fluoro-1-(4-hydroxy-phenyl)-4-oxo-7-(2-((pyridin-2-yloxy)methyl)pyrrolidin-1-yl)-1,4-dihydro-quinoline-3-carboxylic acid] cannot be ordered by IC50: at most 1000 nM for the first, at most 1000 nM for the second.

`CS(=O)(=O)Nc1ccc(-n2cc(C(=O)O)c(=O)c3cc(F)c(N4CCC[C@@H]4COc4ccccn4)cc32)cc1` [Compound 148, (R)-6-fluoro-1-(4-(methyl-sulfonamido)phenyl)-4-oxo-7-(2-((pyridin-2-yloxy)methyl)pyrrolidin-1-yl)-1,4-dihydro-quinoline-3-carboxylic acid] and `CC(=O)Nc1ccc(-n2cc(C(=O)O)c(=O)c3cc(F)c(N4CCC[C@@H]4COc4ccccn4)cc32)cc1` [Compound 159, (R)-1-(4-acetamido-phenyl)-6-fluoro-4-oxo-7-(2-((pyridin-2-yloxy)methyl)pyrrolidin-1-yl)-1,4-dihydro-quinoline-3-carboxylic acid] cannot be ordered by IC50: at most 1000 nM for the first, at most 1000 nM for the second.

`O=C(O)c1cn(-c2ccc(F)cn2)c2cc(N3CCC[C@@H]3COc3ccccn3)c(F)cc2c1=O` [Compound 150, (R)-6-fluoro-1-(5-fluoropyridin-2-yl)-4-oxo-7-(2-((pyridin-2-yloxy)methyl)pyrrolidin-1-yl)-1,4-dihydro-quinoline-3-carboxylic acid] and `O=C(O)c1cn(-c2cc(F)ccc2Cl)c2cc(N3CCC[C@@H]3COc3ccccn3)c(F)cc2c1=O` [Compound 153, (R)-1-(2-chloro-5-fluorophenyl)-6-fluoro-4-oxo-7-(2-((pyridin-2-yloxy)methyl)pyrrolidin-1-yl)-1,4-dihydro-quinoline-3-carboxylic acid] fall in the same range of IC50: 1000 to 10000 nM for the first, 1000 to 10000 nM for the second.

First: O=C(O)c1cn(-c2ccc(O)cc2Cl)c2cc(N3CCC[C@@H]3COc3ccccn3)c(F)cc2c1=O [Compound 152, (R)-1-(2-chloro-4-hydroxy-phenyl)-6-fluoro-4-oxo-7-(2-((pyridin-2-yloxy)methyl)pyrrolidin-1-yl)-1,4-dihydro-quinoline-3-carboxylic acid]
Second: O=C(O)c1cn(-c2ccc(O)cc2C(F)(F)F)c2cc(N3CCC[C@@H]3COc3ccccn3)c(F)cc2c1=O [Compound 164, (R)-6-fluoro-1-(4-hydroxy-2-(trifluoro-methyl)phenyl)-4-oxo-7-(2-((pyridin-2-yloxy)methyl)pyrrolidin-1-yl)-1,4-dihydro-quinoline-3-carboxylic acid]
The IC50 of the first is lower: 1000 to 10000 nM for the first, 10000 to 50000 nM for the second. The first is the more potent here.

`Cc1cccc(F)c1-n1cc(C(=O)O)c(=O)c2cc(F)c(N3CCC[C@@H]3COc3ccccn3)cc21` [Compound 154, (R)-6-fluoro-1-(2-fluoro-6-methylphenyl)-4-oxo-7-(2-((pyridin-2-yloxy)methyl)pyrrolidin-1-yl)-1,4-dihydro-quinoline-3-carboxylic acid] and `Cc1ccc(-n2cc(C(=O)O)c(=O)c3cc(F)c(N4CCC[C@@H]4COc4ccccn4)cc32)c(C)c1` [Compound 156, (R)-1-(2,4-dimethyl-phenyl)-6-fluoro-4-oxo-7-(2-((pyridin-2-yloxy)methyl)pyrrolidin-1-yl)-1,4-dihydro-quinoline-3-carboxylic acid] fall in the same range of IC50: 1000 to 10000 nM for the first, 1000 to 10000 nM for the second.

`COc1ccc(Cl)c(-n2cc(C(=O)O)c(=O)c3cc(F)c(N4CCC[C@@H]4COc4ccccn4)cc32)c1` [Compound 157, (R)-1-(2-chloro-5-methoxy-phenyl)-6-fluoro-4-oxo-7-(2-((pyridin-2-yloxy)methyl)pyrrolidin-1-yl)-1,4-dihydro-quinoline-3-carboxylic acid] and `COc1ccc(F)c(-n2cc(C(=O)O)c(=O)c3cc(F)c(N4CCC[C@@H]4COc4ccccn4)cc32)c1` [Compound 158, (R)-6-fluoro-1-(2-fluoro-5-methoxy-phenyl)-4-oxo-7-(2-((pyridin-2-yloxy)methyl)pyrrolidin-1-yl)-1,4-dihydro-quinoline-3-carboxylic acid] fall in the same range of IC50: 1000 to 10000 nM for the first, 1000 to 10000 nM for the second.

`O=C(O)c1cn(-c2ccccc2CO)c2cc(N3CCC[C@@H]3COc3ccccn3)c(F)cc2c1=O` [Compound 160, (R)-6-fluoro-1-(2-(hydroxy-methyl)phenyl)-4-oxo-7-(2-((pyridin-2-yloxy)methyl)pyrrolidin-1-yl)-1,4-dihydro-quinoline-3-carboxylic acid] and `CCc1ccccc1-n1cc(C(=O)O)c(=O)c2cc(F)c(N3CCC[C@@H]3COc3ccccn3)cc21` [Compound 161, (R)-1-(2-ethylphenyl)-6-fluoro-4-oxo-7-(2-((pyridin-2-yloxy)methyl)pyrrolidin-1-yl)-1,4-dihydro-quinoline-3-carboxylic acid] fall in the same range of IC50: 1000 to 10000 nM for the first, 1000 to 10000 nM for the second.

First: O=C(O)c1cn(-c2ccc(CO)cc2)c2cc(N3CCC[C@@H]3COc3ccccn3)c(F)cc2c1=O [Compound 162, (R)-6-fluoro-1-(4-(hydroxy-methyl)phenyl)-4-oxo-7-(2-((pyridin-2-yloxy)methyl)pyrrolidin-1-yl)-1,4-dihydro-quinoline-3-carboxylic acid]
Second: O=C(O)c1cn(C2CC(CO)C2)c2cc(N3CCC[C@@H]3COc3ccccn3)c(F)cc2c1=O (stereo partly drawn) [Compound 165, (R)-6-fluoro-1-(3-(hydroxy-methyl)cyclo-butyl)-4-oxo-7-(2-((pyridin-2-yloxy)methyl)pyrrolidin-1-yl)-1,4-dihydro-quinoline-3-carboxylic acid]
The IC50 of the first is lower: at most 1000 nM for the first, 10000 to 50000 nM for the second. The first is the more potent here.

`O=C(O)c1cn(C2COC2)c2cc(N3CCC[C@@H]3COc3ccccn3)c(F)cc2c1=O` [Compound 163, (R)-6-fluoro-1-(oxetan-3-yl)-4-oxo-7-(2-((pyridin-2-yloxy)methyl)pyrrolidin-1-yl)-1,4-dihydro-quinoline-3-carboxylic acid] gave an IC50 of 1000 to 10000 nM.
